Data published in patent US20220033397A1, “PHARMACEUTICAL COMPOUNDS AND THEIR USE AS INHIBITORS OF UBIQUITIN SPECIFIC PROTEASE 19 (USP19)” (ALMAC DISCOVERY LIMITED, priority 2018, published 2022).
pIC50: −log10 of the molar value.

Molecular target: T1, Full-length USP19 (Homo sapiens, UniProt O94966)
T1 construct: Full-length USP19 was purchased from Boston Biochem (E-576); purchased Boston Biochem E-576
T1 sequence (O94966 1-1318): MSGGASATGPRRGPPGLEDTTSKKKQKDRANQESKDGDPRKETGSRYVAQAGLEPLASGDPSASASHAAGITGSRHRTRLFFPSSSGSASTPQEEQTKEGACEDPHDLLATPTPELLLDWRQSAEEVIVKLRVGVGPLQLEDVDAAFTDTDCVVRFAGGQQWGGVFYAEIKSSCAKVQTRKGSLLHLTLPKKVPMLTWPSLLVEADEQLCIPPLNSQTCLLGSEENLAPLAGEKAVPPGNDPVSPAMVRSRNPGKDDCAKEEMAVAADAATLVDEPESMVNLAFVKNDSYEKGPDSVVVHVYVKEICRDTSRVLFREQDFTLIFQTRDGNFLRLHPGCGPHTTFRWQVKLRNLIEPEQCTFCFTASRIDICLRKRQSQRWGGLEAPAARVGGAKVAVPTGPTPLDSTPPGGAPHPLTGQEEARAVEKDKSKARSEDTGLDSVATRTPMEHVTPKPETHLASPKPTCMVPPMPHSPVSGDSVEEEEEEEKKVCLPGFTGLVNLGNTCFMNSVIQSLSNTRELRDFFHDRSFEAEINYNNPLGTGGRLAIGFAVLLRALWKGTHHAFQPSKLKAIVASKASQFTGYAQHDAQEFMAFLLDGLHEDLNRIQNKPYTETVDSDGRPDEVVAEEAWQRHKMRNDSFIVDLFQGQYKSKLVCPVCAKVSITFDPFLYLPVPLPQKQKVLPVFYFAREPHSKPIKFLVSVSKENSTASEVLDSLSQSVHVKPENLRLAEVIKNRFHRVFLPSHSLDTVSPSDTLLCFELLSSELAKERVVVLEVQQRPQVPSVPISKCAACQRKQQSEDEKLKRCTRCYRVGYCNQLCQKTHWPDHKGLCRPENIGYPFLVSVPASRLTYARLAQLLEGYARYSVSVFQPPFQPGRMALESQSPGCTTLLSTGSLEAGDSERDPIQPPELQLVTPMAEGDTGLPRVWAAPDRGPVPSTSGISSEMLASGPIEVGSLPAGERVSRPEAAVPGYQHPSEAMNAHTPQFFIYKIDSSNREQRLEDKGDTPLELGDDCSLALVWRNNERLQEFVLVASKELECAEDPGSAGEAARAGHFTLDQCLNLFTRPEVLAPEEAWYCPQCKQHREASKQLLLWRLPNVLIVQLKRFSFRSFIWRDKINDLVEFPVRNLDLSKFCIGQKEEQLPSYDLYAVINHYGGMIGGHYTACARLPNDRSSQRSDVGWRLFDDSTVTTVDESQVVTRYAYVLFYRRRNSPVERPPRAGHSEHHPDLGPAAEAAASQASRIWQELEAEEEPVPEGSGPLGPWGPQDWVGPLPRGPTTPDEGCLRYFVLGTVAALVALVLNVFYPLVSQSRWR
Experiment: USP19 fluorescence polarisation (FP) homogeneous assay with Ubiquitin-Lys-TAMRA substrate
Assay type: biochemical
Conditions: 2.5 nM USP19, 30 min pre-incubation, average of at least two duplicate experiments
How it was run: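 Full-length USP19 preincubated 30 min at RT with inhibitor (200 μM to 2 μM series, 8–18 points) before adding 500 nM Ubiquitin-Lys-TAMRA substrate.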

pIC50: > 6.30
Structure (SMILES): N[C@@H]1CCN(C(=O)N2CC[C@@](O)(Cn3cnc(-c4ccccc4)cc3=O)C3(CCCC3)C2)[C@H](c2ccccc2)C1 [Example 397, 3-(((S)-7-((2S,4R)-4-Amino-2-phenyl-piperidine-1-carbo-nyl)-10-hydroxy-7-azaspiro[4.5]decan-10-yl)methyl)-6-phenylpyrimidin-4(3H)-one]
